Test results reported in article PMC7796259, “Evaluation of Ionic Liquids and Ionic Liquids Active Pharmaceutical Ingredients Inhibition in Elastase Enzyme Activity” (Molecules, 2021).
Read-outs that look alike come from different tables or passages of the source. Where a SMILES comes first, the peptide text is derived from it. The star is where a group is joined. MeOSuc = COC(=O)CCC(=O)*; CH2Cl = ClC*

Legend:
[1] = biological target: T1, Elastase from porcine pancreas (Sus scrofa, UniProt P00772); experiment: Elastase inhibition assay, spectrophotometric (N-succinyl-Ala-Ala-Ala-p-nitroanilide, 405 nm); assay type: biochemical
T1 construct: purchased Sigma-Aldrich; host or cells: porcine pancreas (tissue-derived commercial powder)
Protocol: In order to evaluate the effect of these compounds (ILs and IL-APIs), an enzymatic reaction based on the conversion of the substrate N-succinyl-Ala-Ala-Ala-p-nitroaniline to succinyl-Ala-Ala-Ala and p-nitroaniline by the enzyme elastase was performed. The enzyme activity is determined by the formation of p-nitroaniline, the chromogenic compound resulted from the reaction. Substrate degradation was continuously monitored in the spectrophotometer by measuring increasing absorbance at 405 nm.
The EC50 values for each IL were calculated as the inhibitory concentration causing a 50% decrease in Elastase activity. The EC50 values were automatically calculated, using GraphPad prism8 software.
All the reagents (HEPES buffer, N-succinyl-Ala-Ala-Ala p-nitroanilide, Elastase and acetate buffer) were added sequentially in eppendorf, being the final volume equal to 250 µL. So, in each eppendorf it was added 137.5 µL of HEPES buffer, 10 µL of N-succinyl-Ala-Ala-Ala p-nitroanilide substrate, 30 µL of elastase, 70 µL of acetate buffer, 2.5 µL of DMSO. In inhibitory assays was 87.5 µL of HEPES buffer, 10 µL of N-succinyl-Ala-Ala-Ala p-nitroanilide substrate, 30 µL of elastase, 70 µL of acetate buffer, 2.5 µL of DMSO, and 50 µL of IL/IL-APIs.
Next, the eppendorf was placed inside the thermostatic bath at 37 °C for 10 min.
After 10 min, the reaction product was measured in spectrophotometer at 405 nm.
All assays were performed in batch mode. Thus, the different reagents were placed manually in an eppendorf at the desired concentrations and volumes. After, they were placed in a thermostatic bath where the reaction temperature was regulated for the desired period. The succinyl-Ala-Ala-Ala and p-nitroaniline result from the cleavage of the substrate N-succinyl-Ala-Ala-Ala-p-nitroaniline by porcine elastase enzyme. The enzyme activity was determined by monitoring the chromogenic compound, p-nitroaniline, at 405 nm. All results of ILs and IL-APIs were obtained in duplicate.

carboxylesterase = conditions: read-out: EC50 for carboxylesterase; compared with elastase values; cited from earlier work
[2] = IL-APIs, aqueous solutions, 37 °C, 10 min, substrate 100 µM, duplicate, read-out: EC50 (µM) ± SD

T1 sequence (P00772 27-266): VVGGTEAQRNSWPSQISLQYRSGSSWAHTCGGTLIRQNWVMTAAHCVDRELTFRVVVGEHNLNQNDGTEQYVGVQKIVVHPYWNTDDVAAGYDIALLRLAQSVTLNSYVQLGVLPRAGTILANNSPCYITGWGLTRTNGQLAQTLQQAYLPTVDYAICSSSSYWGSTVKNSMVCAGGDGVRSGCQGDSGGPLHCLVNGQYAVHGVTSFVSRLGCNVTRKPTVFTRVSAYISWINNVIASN

Molecule | EC50 [1, 2] [µM] | other results
CCCCCCCCCCCCCC[P+](CCCCCC)(CCCCCC)CCCCCC [Trihexyltetradecyphosphonium chloride] | > 100 | –
CC(C)(C)CC(C)(C)c1ccc(OCCOCC[N+](C)(C)Cc2ccccc2)cc1.O=S(=O)([N-]S(=O)(=O)C(F)(F)F)C(F)(F)F [Benzethonium bistriflimide] | > 1000 | –
CCCCC(CC)COC(=O)CC(C(=O)OCC(CC)CCCC)S(=O)(=O)[O-].CCCCCCCCCCCCCC[P+](CCCCCC)(CCCCCC)CCCCCC [Trihexyltetradecylphosphonium docusate] | > 700 | –
Benzethonium docusate | > 200 | –
Benzalkonium salicylate | 230 ± 20 | –
O=C([O-])c1ccccc1O.[Na+] [Sodium salicylate, reference compound] | – | EC50 (carboxylesterase): 116.99 ± 0.02 µM; EC50 ([1]; read-out: EC50 (µM) ± SD): 124 ± 4 µM
Benzethonium salicylate | > 500 | –
CCCC[P+](C)(CCCC)CCCC [Tributylmethylphosphonium salicylate] | > 200 | –
O=S(=O)(NS(=O)(=O)C(F)(F)F)C(F)(F)F [Lithium bistriflimide] | 209 ± 12 | –
COC(=O)CCC(=O)N[C@@H](C)C(=O)N[C@@H](C)C(=O)N1CCC[C@H]1C(=O)N[C@H](C(=O)CCl)C(C)C [MeOSuc-Ala-Ala-Pro-Val-chloromethylketone, reference compound] (MeOSuc-AAPV-CH2Cl) | – | EC50 ([1]; ILs and positive control, aqueous solutions, 37 °C, 10 min, substrate 100 µM, duplicate, read-out: EC50 (mM) ± SD): 470 ± 50 µM
